{
  "source": "patent US6667329B1",
  "about": "“Agents with antidepressant action, containing pramipexol and second antidepressant” (Boehringer Ingelheim Pharma GmbH & Co. KG, priority 1998, dated 2003)",
  "test_system": "rats",
  "experiment": "forced swimming test in rats",
  "conditions": "series Pramipexole + amitriptyline",
  "from_the_text": "The test can be carried out as follows for each of the combinations of active substances tested.",
  "data": [
    {"smiles": "CN(C)CCC=C1c2ccccc2CCc2ccccc21", "note": "[Amitriptyline]", "values": [
      {"measurement": "Immobility time", "value": "174.6 ± 9.2", "unit": "s"}
    ]},
    {"smiles": "CCCNC1CCc2nc(N)sc2C1.Cl.Cl", "note": "(centres unmarked) [Pramipexole, 2-amino-6-n-propylamino4,5,6,7-tetrahydrobenzo-thiazole-dihydrochloride]", "values": [
      {"measurement": "Immobility time", "value": "164.3 ± 9.8", "unit": "s"}
    ]}
  ]
}
